From paper PMC7407272, “Induction of Lysosome Membrane Permeabilization as a Therapeutic Strategy to Target Pancreatic Cancer Stem Cells” (Cancers, 2020)

Experiments:
Test in all cases: KINOMEscan
Format in all cases: binding
Conditions in all cases: read-out: % Ctrl
[1] = molecular target: T1, NEK3 (Homo sapiens, UniProt P51956)
T1 construct: purchased DiscoveRx KINOMEscan

[2] = molecular target: T2, FGR (Homo sapiens, UniProt P09769)
T2 construct: purchased DiscoveRx KINOMEscan

[3] = molecular target: T3, LYN (Homo sapiens, UniProt P07948)
T3 construct: purchased DiscoveRx KINOMEscan

[4] = molecular target: T4, CAMK2B (Homo sapiens, UniProt Q13554)
T4 construct: purchased DiscoveRx KINOMEscan

[5] = molecular target: T5, AKT1 (Homo sapiens, UniProt P31749)
T5 construct: purchased DiscoveRx KINOMEscan

[6] = molecular target: T6, MYLK4 (Homo sapiens, UniProt Q86YV6)
T6 construct: purchased DiscoveRx KINOMEscan

[7] = molecular target: T7, DRAK1 (Homo sapiens, UniProt Q9UEE5)
T7 construct: purchased DiscoveRx KINOMEscan

[8] = molecular target: T8, CAMK1D (Homo sapiens, UniProt Q8IU85)
T8 construct: purchased DiscoveRx KINOMEscan

[9] = molecular target: T9, CDK2 (Homo sapiens, UniProt P24941)
T9 construct: purchased DiscoveRx KINOMEscan

[10] = molecular target: T10, TNIK (Homo sapiens, UniProt Q9UKE5)
T10 construct: purchased DiscoveRx KINOMEscan

[11] = molecular target: T11, MEK3 (Homo sapiens, UniProt P46734)
T11 construct: purchased DiscoveRx KINOMEscan

[12] = molecular target: T12, ABL1(F317L)-nonP (Homo sapiens, UniProt P00519, F317L)
T12 construct: purchased DiscoveRx KINOMEscan

[13] = molecular target: T13, EGFR(G719S) (Homo sapiens, UniProt P00533, G719S)
T13 construct: purchased DiscoveRx KINOMEscan

[14] = molecular target: T14, YSK1 (Homo sapiens, UniProt O00506)
T14 construct: purchased DiscoveRx KINOMEscan

[15] = molecular target: T15, ABL1-P (Homo sapiens, UniProt P00519)
T15 construct: purchased DiscoveRx KINOMEscan

[16] = molecular target: T16, CAMK1 (Homo sapiens, UniProt Q14012)
T16 construct: purchased DiscoveRx KINOMEscan

[17] = molecular target: T17, HIPK4 (Homo sapiens, UniProt Q8NE63)
T17 construct: purchased DiscoveRx KINOMEscan

[18] = molecular target: T18, EGFR(L858R) (Homo sapiens, UniProt P00533, L858R)
T18 construct: purchased DiscoveRx KINOMEscan

[19] = molecular target: T19, PKN1 (Homo sapiens, UniProt Q16512)
T19 construct: purchased DiscoveRx KINOMEscan

[20] = molecular target: T20, MAPKAPK2 (Homo sapiens, UniProt P49137)
T20 construct: purchased DiscoveRx KINOMEscan

[21] = molecular target: T21, MAP4K5 (Homo sapiens, UniProt Q9Y4K4)
T21 construct: purchased DiscoveRx KINOMEscan

[22] = molecular target: T22, EGFR(E746-A750del) (Homo sapiens, UniProt P00533, DEL746-750)
T22 construct: purchased DiscoveRx KINOMEscan

[23] = molecular target: T23, FLT3(N841I) (Homo sapiens, UniProt P36888, N841I)
T23 construct: purchased DiscoveRx KINOMEscan

[24] = molecular target: T24, MKNK2 (Homo sapiens, UniProt Q9HBH9)
T24 construct: purchased DiscoveRx KINOMEscan

[25] = molecular target: T25, MYO3A (Homo sapiens, UniProt Q8NEV4)
T25 construct: purchased DiscoveRx KINOMEscan

[26] = molecular target: T26, LCK (Homo sapiens, UniProt P06239)
T26 construct: purchased DiscoveRx KINOMEscan

[27] = molecular target: T27, BMPR1A (Homo sapiens, UniProt P36894)
T27 construct: purchased DiscoveRx KINOMEscan

[28] = molecular target: T28, JAK2(JH1D.-cat.) (Homo sapiens, UniProt O60674)
T28 construct: JAK2(JH1D.-cat.); purchased DiscoveRx KINOMEscan

[29] = molecular target: T29, EPHB2 (Homo sapiens, UniProt P29323)
T29 construct: purchased DiscoveRx KINOMEscan

[30] = molecular target: T30, DLK (Homo sapiens, UniProt Q12852)
T30 construct: purchased DiscoveRx KINOMEscan

[31] = molecular target: T31, PAK2 (Homo sapiens, UniProt Q13177)
T31 construct: purchased DiscoveRx KINOMEscan

[32] = molecular target: T32, OSR1 (Homo sapiens, UniProt O95747)
T32 construct: purchased DiscoveRx KINOMEscan

[33] = molecular target: T33, MAP3K3 (Homo sapiens, UniProt Q99759)
T33 construct: purchased DiscoveRx KINOMEscan
T33 sequence (Q99759 whole entry): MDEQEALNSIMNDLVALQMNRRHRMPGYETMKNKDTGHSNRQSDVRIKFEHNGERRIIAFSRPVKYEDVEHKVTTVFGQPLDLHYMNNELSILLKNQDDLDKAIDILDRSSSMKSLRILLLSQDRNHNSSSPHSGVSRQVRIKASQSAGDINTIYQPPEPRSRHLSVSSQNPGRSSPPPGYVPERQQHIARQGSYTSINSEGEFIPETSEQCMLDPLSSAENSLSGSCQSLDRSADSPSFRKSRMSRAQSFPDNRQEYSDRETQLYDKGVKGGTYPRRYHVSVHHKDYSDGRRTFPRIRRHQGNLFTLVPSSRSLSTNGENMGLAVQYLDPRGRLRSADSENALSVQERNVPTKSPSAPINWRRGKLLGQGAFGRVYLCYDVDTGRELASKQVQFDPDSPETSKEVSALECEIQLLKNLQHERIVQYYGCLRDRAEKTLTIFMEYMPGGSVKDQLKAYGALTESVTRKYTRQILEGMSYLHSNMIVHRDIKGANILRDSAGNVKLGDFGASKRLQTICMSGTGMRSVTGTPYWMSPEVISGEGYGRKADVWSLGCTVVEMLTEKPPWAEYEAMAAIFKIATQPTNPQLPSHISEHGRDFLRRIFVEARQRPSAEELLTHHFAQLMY

T25 sequence (Q8NEV4 whole entry): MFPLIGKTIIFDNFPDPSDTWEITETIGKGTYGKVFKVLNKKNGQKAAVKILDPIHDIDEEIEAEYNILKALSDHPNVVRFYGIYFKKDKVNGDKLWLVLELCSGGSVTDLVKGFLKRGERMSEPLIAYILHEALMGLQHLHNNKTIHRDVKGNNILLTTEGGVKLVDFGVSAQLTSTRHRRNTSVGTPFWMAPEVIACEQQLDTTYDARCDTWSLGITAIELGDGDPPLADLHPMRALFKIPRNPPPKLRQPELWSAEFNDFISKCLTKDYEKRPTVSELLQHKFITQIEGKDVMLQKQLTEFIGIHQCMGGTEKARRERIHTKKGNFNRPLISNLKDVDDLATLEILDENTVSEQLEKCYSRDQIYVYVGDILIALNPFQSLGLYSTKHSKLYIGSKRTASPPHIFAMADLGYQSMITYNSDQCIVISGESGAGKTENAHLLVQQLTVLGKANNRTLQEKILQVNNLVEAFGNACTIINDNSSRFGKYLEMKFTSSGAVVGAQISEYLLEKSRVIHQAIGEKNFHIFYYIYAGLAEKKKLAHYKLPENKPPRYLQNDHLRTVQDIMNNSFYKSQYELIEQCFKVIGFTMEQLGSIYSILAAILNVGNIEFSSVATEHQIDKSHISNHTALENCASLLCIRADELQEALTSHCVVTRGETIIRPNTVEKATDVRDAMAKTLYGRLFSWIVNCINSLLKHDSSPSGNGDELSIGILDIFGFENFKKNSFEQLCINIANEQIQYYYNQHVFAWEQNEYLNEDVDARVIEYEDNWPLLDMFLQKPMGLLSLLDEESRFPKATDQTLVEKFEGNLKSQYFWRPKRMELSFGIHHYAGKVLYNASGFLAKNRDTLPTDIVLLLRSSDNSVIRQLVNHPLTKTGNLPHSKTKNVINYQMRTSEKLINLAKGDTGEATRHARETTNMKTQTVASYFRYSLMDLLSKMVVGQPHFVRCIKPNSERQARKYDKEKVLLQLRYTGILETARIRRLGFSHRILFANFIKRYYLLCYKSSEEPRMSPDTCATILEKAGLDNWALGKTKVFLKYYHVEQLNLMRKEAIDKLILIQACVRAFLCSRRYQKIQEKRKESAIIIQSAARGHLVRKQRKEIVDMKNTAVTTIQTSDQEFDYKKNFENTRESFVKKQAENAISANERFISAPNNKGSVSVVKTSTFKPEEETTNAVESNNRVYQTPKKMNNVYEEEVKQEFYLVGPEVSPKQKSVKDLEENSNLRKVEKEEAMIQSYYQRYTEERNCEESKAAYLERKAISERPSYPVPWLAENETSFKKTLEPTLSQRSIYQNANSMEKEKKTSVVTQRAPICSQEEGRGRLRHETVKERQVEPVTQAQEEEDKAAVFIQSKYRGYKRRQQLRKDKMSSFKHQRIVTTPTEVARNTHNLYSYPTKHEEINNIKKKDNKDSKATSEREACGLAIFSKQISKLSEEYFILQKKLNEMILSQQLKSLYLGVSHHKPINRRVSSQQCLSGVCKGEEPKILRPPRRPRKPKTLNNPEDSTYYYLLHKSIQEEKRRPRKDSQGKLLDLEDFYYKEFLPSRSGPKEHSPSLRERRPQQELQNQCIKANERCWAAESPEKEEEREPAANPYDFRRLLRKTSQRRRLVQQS
T20 sequence (P49137 whole entry): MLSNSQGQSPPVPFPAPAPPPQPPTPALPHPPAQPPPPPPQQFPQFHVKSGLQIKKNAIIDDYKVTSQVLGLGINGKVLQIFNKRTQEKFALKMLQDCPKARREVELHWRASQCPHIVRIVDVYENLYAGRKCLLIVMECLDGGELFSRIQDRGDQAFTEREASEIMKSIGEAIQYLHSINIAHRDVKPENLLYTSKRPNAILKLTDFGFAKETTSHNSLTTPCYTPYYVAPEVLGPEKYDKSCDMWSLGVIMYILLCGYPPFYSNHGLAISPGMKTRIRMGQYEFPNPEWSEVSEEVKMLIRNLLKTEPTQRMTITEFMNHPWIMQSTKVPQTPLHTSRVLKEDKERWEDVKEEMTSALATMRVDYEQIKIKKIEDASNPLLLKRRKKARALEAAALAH
T15 sequence (P00519 whole entry): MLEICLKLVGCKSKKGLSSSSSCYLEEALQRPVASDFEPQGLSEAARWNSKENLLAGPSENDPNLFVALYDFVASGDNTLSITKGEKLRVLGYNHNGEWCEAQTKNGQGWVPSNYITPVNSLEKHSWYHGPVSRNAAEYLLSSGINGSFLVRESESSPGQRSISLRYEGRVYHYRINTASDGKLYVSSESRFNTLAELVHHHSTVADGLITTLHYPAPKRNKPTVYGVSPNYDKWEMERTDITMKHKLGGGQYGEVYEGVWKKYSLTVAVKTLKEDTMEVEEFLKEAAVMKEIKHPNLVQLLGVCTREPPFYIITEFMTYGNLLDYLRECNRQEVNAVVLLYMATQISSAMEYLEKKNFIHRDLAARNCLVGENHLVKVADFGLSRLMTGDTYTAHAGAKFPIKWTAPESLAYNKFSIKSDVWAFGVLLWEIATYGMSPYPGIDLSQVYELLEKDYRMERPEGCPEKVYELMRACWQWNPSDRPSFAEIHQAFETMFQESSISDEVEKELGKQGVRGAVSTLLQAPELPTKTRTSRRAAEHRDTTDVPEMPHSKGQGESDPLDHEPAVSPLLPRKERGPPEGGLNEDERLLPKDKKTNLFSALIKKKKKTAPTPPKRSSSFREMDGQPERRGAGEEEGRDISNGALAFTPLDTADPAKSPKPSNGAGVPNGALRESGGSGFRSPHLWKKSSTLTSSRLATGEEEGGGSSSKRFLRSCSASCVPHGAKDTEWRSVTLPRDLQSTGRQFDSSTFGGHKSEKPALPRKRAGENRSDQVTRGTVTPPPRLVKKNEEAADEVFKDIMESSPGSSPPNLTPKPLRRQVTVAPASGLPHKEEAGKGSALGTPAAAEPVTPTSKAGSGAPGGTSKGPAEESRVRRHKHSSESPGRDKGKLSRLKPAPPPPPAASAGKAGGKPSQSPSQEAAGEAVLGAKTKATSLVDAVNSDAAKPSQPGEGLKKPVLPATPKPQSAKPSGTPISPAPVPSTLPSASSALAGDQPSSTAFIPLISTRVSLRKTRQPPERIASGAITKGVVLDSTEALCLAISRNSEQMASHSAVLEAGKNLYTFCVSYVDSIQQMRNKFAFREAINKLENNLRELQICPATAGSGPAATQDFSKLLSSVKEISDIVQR
T26 sequence (P06239 whole entry): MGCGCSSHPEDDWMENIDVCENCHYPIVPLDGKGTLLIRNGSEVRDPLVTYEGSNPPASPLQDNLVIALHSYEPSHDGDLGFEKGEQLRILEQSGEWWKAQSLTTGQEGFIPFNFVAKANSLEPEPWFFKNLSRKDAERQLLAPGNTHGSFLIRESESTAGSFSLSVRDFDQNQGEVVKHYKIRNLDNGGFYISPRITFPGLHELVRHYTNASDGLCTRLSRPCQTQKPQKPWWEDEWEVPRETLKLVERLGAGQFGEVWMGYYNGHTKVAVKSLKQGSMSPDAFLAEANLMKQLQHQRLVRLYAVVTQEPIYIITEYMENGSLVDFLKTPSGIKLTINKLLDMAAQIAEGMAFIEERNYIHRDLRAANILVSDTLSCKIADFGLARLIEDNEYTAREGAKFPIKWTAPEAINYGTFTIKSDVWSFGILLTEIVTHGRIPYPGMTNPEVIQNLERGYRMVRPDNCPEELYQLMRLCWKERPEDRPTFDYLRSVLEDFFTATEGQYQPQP
T4 sequence (Q13554 whole entry): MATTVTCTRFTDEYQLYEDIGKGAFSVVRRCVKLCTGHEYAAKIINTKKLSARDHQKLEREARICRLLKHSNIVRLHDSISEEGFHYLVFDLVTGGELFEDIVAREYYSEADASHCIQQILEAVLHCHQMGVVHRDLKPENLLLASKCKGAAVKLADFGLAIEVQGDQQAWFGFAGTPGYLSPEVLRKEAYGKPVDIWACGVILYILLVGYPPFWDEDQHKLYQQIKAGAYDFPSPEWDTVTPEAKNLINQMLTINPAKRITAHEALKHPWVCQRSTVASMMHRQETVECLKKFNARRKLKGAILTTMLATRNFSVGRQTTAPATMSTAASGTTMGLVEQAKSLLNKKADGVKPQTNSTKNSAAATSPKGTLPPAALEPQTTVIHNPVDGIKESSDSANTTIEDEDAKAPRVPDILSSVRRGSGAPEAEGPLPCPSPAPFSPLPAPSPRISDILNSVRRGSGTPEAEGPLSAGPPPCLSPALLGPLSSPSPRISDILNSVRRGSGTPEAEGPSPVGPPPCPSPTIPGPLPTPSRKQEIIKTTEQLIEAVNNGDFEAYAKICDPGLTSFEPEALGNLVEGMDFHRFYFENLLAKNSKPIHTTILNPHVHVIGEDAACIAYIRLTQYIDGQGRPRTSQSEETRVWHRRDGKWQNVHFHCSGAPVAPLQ
T12 sequence (P00519 whole entry F317L): as the sequence (P00519 whole entry) above, with F317L counted along it

CN1CCC(CNc2ccc3ncc(C(=O)Nc4cccc(OC(F)(F)F)c4)n3n2)CC1 [Cpd 2]
remaining binding at 1 µM [1]: 100% | remaining binding at 1 µM [2]: 77% | remaining binding at 1 µM [3]: 98% | remaining binding at 1 µM [4]: 92% | remaining binding at 1 µM [5]: 100% | remaining binding at 1 µM [6]: 100% | remaining binding at 1 µM [7]: 97% | remaining binding at 1 µM [8]: 94% | remaining binding at 1 µM [9]: 100% | remaining binding at 1 µM [10]: 81% | remaining binding at 1 µM [11]: 94% | remaining binding at 1 µM [12]: 66% | remaining binding at 1 µM [13]: 100% | remaining binding at 1 µM [14]: 95% | remaining binding at 1 µM [15]: 95% | remaining binding at 1 µM [16]: 98% | remaining binding at 1 µM [17]: 88% | remaining binding at 1 µM [18]: 94% | remaining binding at 1 µM [19]: 100% | remaining binding at 1 µM [20]: 94% | remaining binding at 1 µM [21]: 92% | remaining binding at 1 µM [22]: 77% | remaining binding at 1 µM [23]: 60% | remaining binding at 1 µM [24]: 96% | remaining binding at 1 µM [25]: 91% | remaining binding at 1 µM [26]: 77% | remaining binding at 1 µM [27]: 97% | remaining binding at 1 µM [28]: 96% | remaining binding at 1 µM [29]: 95% | remaining binding at 1 µM [30]: 100% | remaining binding at 1 µM [31]: 94% | remaining binding at 1 µM [32]: 100% | remaining binding at 1 µM [33]: 96%
